Experimental data from US20100190742A1, “COSMETIC/PHARMACEUTICAL COMPOSITIONS COMPRISING HYALURONIC ACID AND ADMINISTRATION THEREOF FOR REDUCING SIGNS OF AGING” (L'OREAL, priority 2007, published 2010).

Tested on: CD44
Assay: Expression of CD44 on cultured normal human skin explants, indirect immunoperoxidase histochemistry
Assay type: cell-based
Details: for Histochemical analysis of the CD44 receptor (semiquantitative scores), Mean ± sd n = 8: skin explants cultured 14 days
Protocol: CD44 is a transmembrane glycoprotein with a molecular weight of 80-95 kDa (CD44). The increase in the expression of this receptor at the surface of the cells of the skin improves the binding of hyaluronic acid, collagen and fibronectin. This binding makes possible in particular hydration of the dermis and epidermis.
Normal human skin fragments are obtained by plastic surgery and are deposited in culture plates. The skin explants are cultured for 14 days and compound A is added daily at 0.3 or 3 mM. At the end of culturing, the skin explants are fixed in Bouin's fluid and embedded in paraffin wax. Sections are produced and the receptor is visualized by a 3-layer indirect immunoperoxidase technique (ABC peroxidase kit, Vector Laboratories).
Histochemical analysis of the CD44 receptor (semiquantitative scores);

Structure (SMILES): CC(O)C[C@@H]1OC[C@@H](O)[C@H](O)[C@H]1O (stereo partly drawn) [compound A, C-β-D-xylopyranoside-2-hydroxypropane]
- activity on expression of CD44 (in words) (0.3 mM): present
- activity on expression of CD44 (in words) (higher concentration (3 mM)): again encountered
- Histochemical analysis of the CD44 receptor (semiquantitative scores), Mean ± sd n = 8 (compound added daily at 0.3 mM): 2.30 ± 1.00
- Histochemical analysis of the CD44 receptor (semiquantitative scores), Mean ± sd n = 8 (compound added daily at 3.0 mM): 2.00 ± 1.10
- expression of CD44 (histological evaluation, in words) (skin explants treated daily for 14 days): significant increase
